Assay results: PMC3169410 (Acta Crystallographica Section F: Structural Biology and …, 2011)
Like-named read-outs stand apart in the source and are kept apart here.

Molecular target: T1, BrabA.11339.a (Brucella abortus, UniProt Q2YQ74)
T1 construct: gene BAB1_1016
Conditions: Mn2+ dinuclear active site at dimer interface

T1 sequence (Q2YQ74 2-272 limits assumed): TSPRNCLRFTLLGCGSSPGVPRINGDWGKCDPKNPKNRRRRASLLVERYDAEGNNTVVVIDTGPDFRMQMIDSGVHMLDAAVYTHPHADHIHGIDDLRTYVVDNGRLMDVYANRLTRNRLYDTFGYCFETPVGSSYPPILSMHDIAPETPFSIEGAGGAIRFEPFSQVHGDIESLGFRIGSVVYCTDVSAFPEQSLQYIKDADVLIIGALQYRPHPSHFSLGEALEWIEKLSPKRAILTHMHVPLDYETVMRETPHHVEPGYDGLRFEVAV

Structure (SMILES) | X-ray crystallography (AMP found in cocrystals grown with 1 mM AMPPNP and 2 mM MgCl2 (1.7 A and 1.6 A)) | X-ray crystallography (GMP copurified from E. coli, partially occupied (3md7, 1.27 A), full density in cocrystal with 1 mM GMPPNP and 2 mM MgCl2 (3py6, 1.7 A))
Nc1ncnc2c1ncn2[C@@H]1O[C@H](COP(=O)(O)O)[C@@H](O)[C@H]1O [AMP] | very solid electron density could be observed for GMP and AMP, respectively | –
Nc1nc2c(ncn2[C@@H]2O[C@H](COP(=O)(O)O)[C@@H](O)[C@H]2O)c(=O)[nH]1 [GMP] | – | In the native structure, a partially occupied GMP molecule can be observed in the immediate proximity
